Values belong to the compound of their own block, whether it stands above or below them.
Experiments:
S1P3 receptor = S1P3 receptor (Homo sapiens, UniProt Q99500); test: GTP[γ35S] binding assay, S1P3 receptor agonist activity; assay type: biochemical
[1] = system: human retinal vascular endothelial cells (HRMECs); test: Permeability of human retinal vascular endothelial cells (Transwell, FITC-dextran); assay type: cell-based; details: HRMECs in Transwell; 0.3 nM, 3 nM or 30 nM; 60 minutes pre-culture, 60 minutes after FITC-dextran (40 kDa)
Experimental: The upper chamber of Transwell (diameter: 6.5 mm, pore size: 0.4 μm: Corning Incorporated) coated with collagen and fibronectin was seeded with human retinal vascular endothelial cells (HRMECs) (Cell Systems) at a cell density of 5×10^4 cells/well, and the cells were cultured in Endothelial Cell Growth Medium MV 2 (PromoCell GmbH) under a 5% CO2 atmosphere at 37° C. for 6 days. Then, to the upper chamber and lower chamber of the Transwell, Compound 1 at a final concentration of 0 nM, 0.3 nM, 3 nM, or 30 nM, which had been prepared using 0.001% dimethyl sulfoxide-containing Endothelial Cell Growth Medium MV 2 as a vehicle, was added, and culture was continued. A well to which only the vehicle was added was used as a control. After 60 minutes of culture, 1 mg/mL of fluorescein isothiocyanate (FITC)-dextran (40 kDa: Sigma-Aldrich) was added to the upper chamber of the Transwell, and 60 minutes later, the fluorescence intensity of the medium in the lower chamber was measured to measure the amount of FITC-dextran permeating the lower chamber.

S1P1 receptor = S1P1 receptor (Homo sapiens, UniProt P21453); test: GTP[γ35S] binding assay, S1P1 receptor agonist activity
Sequence of S1P1 receptor (P21453 whole entry): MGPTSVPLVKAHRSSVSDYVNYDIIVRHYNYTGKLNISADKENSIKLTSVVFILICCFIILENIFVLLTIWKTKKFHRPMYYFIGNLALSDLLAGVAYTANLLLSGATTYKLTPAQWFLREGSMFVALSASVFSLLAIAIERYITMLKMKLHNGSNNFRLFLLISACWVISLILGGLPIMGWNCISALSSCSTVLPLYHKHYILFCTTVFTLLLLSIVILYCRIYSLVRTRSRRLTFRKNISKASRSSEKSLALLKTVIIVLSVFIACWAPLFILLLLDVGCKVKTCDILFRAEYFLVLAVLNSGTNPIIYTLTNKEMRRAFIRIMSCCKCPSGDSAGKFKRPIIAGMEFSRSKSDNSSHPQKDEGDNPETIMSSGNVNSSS

[2] = system: laser-induced choroidal neovascularization (CNV) model; test: Laser-induced CNV model: fluorescein angiography (FA) grade; assay type: in vivo, mice; details: 0.3 mg/kg orally once daily; Day 14 (Comparative Example 1)
Experimental: A Mydrin-P ophthalmic solution (Santen Pharmaceutical Co., Ltd., Mydrin is a trademark) was dropped into the right eye of 8-week-old mice (Japan SLC, Inc., C56BL/6J strain) to cause mydriasis. A solution obtained by diluting a 7:1 mixed anesthetic solution of ketamine and xylazine 10-fold with physiological saline was administered at 10 mL/kg into the femoral muscle. After that, a 0.1% Hyalein (trademark) ophthalmic solution (Santen Pharmaceutical Co., Ltd.) was dropped into the eye so as to prevent the eyeball from drying. […]
Sampling was performed on the 14th day after the laser irradiation. The mice were anesthetized with 10 mL/kg of a solution obtained by diluting a 7:1 mixed anesthetic solution of ketamine and xylazine 10-fold with physiological saline, and then 0.1 mL of a 10-fold dilution of fluorescein (Alcon Japan Ltd.) was administered into the tail vein of the mice, followed by fluorescence fundus photography using Micron 4 (Phoenix Research Laboratories, Inc. Pleasanton, Calif., USA).
In FIG. 1 (a), Day 0 indicates images taken on the day of the laser irradiation, and Day 14 indicates images taken on the 14th day. In addition, for the image of each group on Day 14, an FA grade was determined for each laser irradiation site in accordance with grade criteria shown in Table 1 to evaluate the leakage of a fluorescent dye from a neovascularization site. […]

[3] = system: laser-induced choroidal neovascularization (CNV) model; test: Laser-induced CNV model: area of CNV in choroidal flat mount; assay type: in vivo, mice; details: 0.3 mg/kg orally once daily; Day 14 (Comparative Example 1; BZ-X710, Image J)
Experimental: After fluorescence fundus photography had been performed as described above in the section (1), 0.5 mL of fluorescein isothiocyanate dextran (FITC-dextran; 20 mg/mL, Sigma-Aldrich) was administered into the tail vein of the mice. The mice were euthanized by cervical dislocation, and the eyeball was extirpated. The extirpated eyeball was fixed in a 4% paraformaldehyde phosphate buffer for 12 hours. After that, the cornea and lens were excised under a microscope, and the remaining vitreous artery was removed with forceps. Further, the retina was removed, and the choroid was notched 8 points and embedded with Fluoromount (Diagnostic BioSystems) in a flat state to generate a choroidal flat mount specimen. The choroidal flat mount was photographed using a confocal laser scanning microscope (FLUOVIEW FV10i; Olympus, Tokyo, Japan). Next, on the basis of the photographed image, the CNV was encircled using analysis software OLYMPUS FLUOVIEW FV10i (Olympus), and the area thereof was determined as the area of CNV (μm^2). All analyses were performed in a blinded manner. After fluorescence fundus photography had been performed as described above in the section (1), a choroidal flat mount specimen was generated by the same method as in Example 1. The choroidal flat mount was photographed using an all-in-one fluorescence microscope (BZ-X710; Keyence, Osaka, Japan). Next, on the basis of the photographed image, the CNV was encircled using image editing software Image J, and the area thereof was determined as the area of CNV (μm^2). All analyses were performed in a blinded manner.

Body weight in CNV model = assay type: in vivo, mice; details: oral once daily dosing, vs vehicle group
Description: A case in which FA was unable to be performed owing to cloudiness caused by a flaw in the eye produced before the FA evaluation and a case in which CNV was connected at the time of the evaluation of the area of CNV were excluded from analysis, and the above-mentioned results were each calculated as a mean of 11 or 12 mice in each group. […] A case in which FA was unable to be performed owing to cloudiness caused by a flaw in the eye produced before the FA evaluation and a case in which CNV was connected at the time of the evaluation of the area of CNV were excluded from analysis, and the above-mentioned results were each calculated as a mean of 12 mice in each group.

S1P4 receptor = target: T1, S1P4 receptor (Homo sapiens, UniProt O95977); details: GTP[γ35S] binding assay; report PLoS One, 2014, 9(10), e110819; read-out: EC50 for S1P4 receptor agonist activity; cited from earlier work
T1 sequence (O95977 1-384): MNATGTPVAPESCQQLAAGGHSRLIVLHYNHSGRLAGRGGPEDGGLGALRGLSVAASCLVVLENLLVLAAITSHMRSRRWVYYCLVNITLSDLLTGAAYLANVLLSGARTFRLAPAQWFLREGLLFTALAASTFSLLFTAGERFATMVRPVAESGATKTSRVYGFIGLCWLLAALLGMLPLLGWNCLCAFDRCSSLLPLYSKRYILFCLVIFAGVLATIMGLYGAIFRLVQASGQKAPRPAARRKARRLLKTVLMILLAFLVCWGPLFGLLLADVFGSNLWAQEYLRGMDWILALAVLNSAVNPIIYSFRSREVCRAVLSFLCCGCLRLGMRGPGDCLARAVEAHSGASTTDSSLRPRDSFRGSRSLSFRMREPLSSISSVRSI

Sequence of S1P3 receptor (Q99500 whole entry): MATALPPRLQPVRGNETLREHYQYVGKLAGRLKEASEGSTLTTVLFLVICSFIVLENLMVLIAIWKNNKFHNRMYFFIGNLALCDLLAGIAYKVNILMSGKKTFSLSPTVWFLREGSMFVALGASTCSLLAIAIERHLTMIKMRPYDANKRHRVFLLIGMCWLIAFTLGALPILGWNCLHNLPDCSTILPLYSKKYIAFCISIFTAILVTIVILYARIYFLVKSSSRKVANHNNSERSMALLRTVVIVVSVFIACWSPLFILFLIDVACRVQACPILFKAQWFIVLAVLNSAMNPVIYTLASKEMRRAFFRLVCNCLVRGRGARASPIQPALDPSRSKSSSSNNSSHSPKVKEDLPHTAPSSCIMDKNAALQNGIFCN

EC50 (S1P3 receptor): 1760 nM
EC50 for S1P3 receptor agonist activity as compared to that for the S1P1 receptor (S1P3 receptor): ≥ 100 fold
EC50 (S1P1 receptor): 13.4 nM
SMILES: Cl.O=C(O)C1CCN(CC2=Cc3ccc(OCc4ccc(OCC(F)(F)F)c(C(F)(F)F)c4)cc3OC2)CC1 [Compound 2, 1-[(7-{[4-(2,2,2-trifluoroethoxy)-3-(trifluoromethyl)phenyl]methoxy}-2H-1-benzopyran-3-yl)methyl]piperidine-4-carboxylic acid monohydrochloride]
amount of FITC-dextran permeating the lower chamber (fluorescence intensity) [1]: significantly decreased the amount of FITC-dextran permeating the lower chamber

SMILES: CCc1cc(/C(C)=N/OCc2ccc(C3CCCCC3)c(C(F)(F)F)c2)ccc1CN1CC(C(=O)O)C1 [Compound 3, 1-({4-[(1E)-N-{[4-cyclohexyl-3-(trifluoromethyl)phenyl]methoxy}ethanimidoyl]-2-ethylphenyl}methyl)azetidine-3-carboxylic acid]
amount of FITC-dextran permeating the lower chamber (fluorescence intensity) [1]: significantly decreased the amount of FITC-dextran permeating the lower chamber

SMILES: CC(C)Oc1ccc(-c2nc(-c3cccc4c3CC[C@@H]4NCCO)no2)cc1C#N [Compound 4, 5-(3-{(1S)-1-[(2-hydroxyethyl)amino]-2,3-dihydro-1H-inden-4-yl}-1,2,4-oxadiazol-5-yl)-2-[(propan-2-yl)oxy]benzonitrile]
amount of FITC-dextran permeating the lower chamber (fluorescence intensity) [1]: significantly decreased the amount of FITC-dextran permeating the lower chamber

SMILES: CCC/N=C1\S/C(=C\c2ccc(OC[C@H](O)CO)c(Cl)c2)C(=O)N1c1ccccc1C [Compound 5, (2Z,5Z)-5-({3-chloro-4-[(2R)-2,3-dihydroxypropoxy]phenyl}methylidene)-3-(2-methylphenyl)-2-(propylimino)-1,3-thiazolidin-4-one]
amount of FITC-dextran permeating the lower chamber (fluorescence intensity) [1]: significantly decreased the amount of FITC-dextran permeating the lower chamber

SMILES: O=C(O)C[C@H]1CCc2c1[nH]c1ccc(OCc3ccc(C4CCCC4)c(C(F)(F)F)c3)cc21 [Compound 6, [(3R)-7-{[4-cyclopentyl-3-(trifluoromethyl)phenyl]methoxy}-1,2,3,4-tetrahydrocyclopenta[b]indol-3-yl]acetic acid]
amount of FITC-dextran permeating the lower chamber (fluorescence intensity) [1]: significantly decreased the amount of FITC-dextran permeating the lower chamber

SMILES: NC(CO)(CCc1ccc(Sc2cccc(OCc3ccccc3)c2)cc1Cl)COP(=O)(O)O (stereo not shown) [Compound 7, 2-amino-4-(4-{[3-(benzyloxy)phenyl]sulfanyl}-2-chlorophenyl)-2-(hydroxymethyl)butyl dihydrogen phosphate]
amount of FITC-dextran permeating the lower chamber (fluorescence intensity) [1]: significantly decreased the amount of FITC-dextran permeating the lower chamber

SMILES: CCCCCCCCc1ccc(CCC(N)(CO)CO)cc1.Cl [FTY720, 2-amino-2-[2-(4-octylphenyl)ethyl]propane-1,3-diol monohydrochloride, reference compound]
FA grade as compared to the vehicle group [2]: a significant lowering in FA grade was not found
area of CNV [3]: not found to significantly decrease the area of CNV
change in body weight between the groups before sampling (Body weight in CNV model): a significant change in body weight between the groups before sampling was not found

SMILES: CCCCCCCCc1ccc(CCC(N)(CO)COP(=O)(O)O)cc1 (stereo not shown) [FTY720-P, 2-amino-2-(hydroxymethyl)-4-(4-octylphenyl)butyl dihydrogenphosphate, reference compound]
EC50 (S1P4 receptor): 2.2 nM

From US20210113529A1, “MEDICINE FOR PREVENTING OR TREATING OPHTHALMIC DISEASE ASSOCIATED WITH ENHANCED INTRAOCULAR NEOVASCULARIZATION AND/OR INTRAOCULAR VASCULAR PERMEABILITY” (KYOTO UNIVERSITY, priority 2018, published 2021)
